Laboratory results published in patent publication US20240131036A1, “COMPOSITIONS AND METHODS OF TREATING CONDITIONS” (priority 2020, published 2024).
Like-named read-outs stand apart in the source and are kept apart here.

Columns and labels:
human epithelial cells = experiment: Gene Set Enrichment Analysis (GSEA) of microarray data (GSE117351), antiviral pathways; assay type: cell-based; set-up: key: ^..: the effect is absent
[1] = very high doses (3-60 μg/kg); cited from earlier work
[2] = target: SARS-CoV-2 3CL^Pro (M^pro) (Severe acute respiratory syndrome coronavirus 2 (2019-nCoV) (SARS-CoV-2), UniProt P0DTD1); experiment: Enzymatic assay for M^pro (3CL Protease, MBP-tagged assay kit); assay type: biochemical; conditions: for inhibition at 0.2 µM: 2×10^−7 M, read-out: M^pro enzyme inhibition
Protocol: FIG. 1.3A and 1.3B illustrate the enzyme inhibition by the selected sterols and secosteroids. […] Min=negative control without any enzyme (0% enzyme activity), Max=positive control with enzyme and substrate (100% enzyme activity). […] The statistical significance of differences was evaluated by one-way ANOVA, *p<0.05, **p<0.01, ***p<0.001, for all conditions relative to the ethanol blank, n=3. FIG. 1.3B illustrates the RdRP enzyme activity inhibition by selected sterols and secosteroids. […] Min=negative control without any enzyme (0% enzyme activity), Max=positive control with enzyme and substrate (100% enzyme activity). The statistical significance of differences was evaluated by one-way ANOVA, *p<0.05, **p<0.01, ***p<0.001, for all conditions relative to the ethanol blank, n=3
The SARS-CoV-2 3CL^Pro (M^pro), MBP-tagged Assay Kit (BPS Biosciences, San Diego, CA, USA) was used to measure 3CL Protease (M^pro) activity for screening and profiling applications. The 3CL inhibitor GC376 was included as a positive control and also used as a standard. The assay was performed according to the protocol provided by the manufacturer with the concentration of compounds tested being 10^−7 M.

SARS-CoV-2 RdRP = SARS-CoV-2 RdRP (Severe acute respiratory syndrome coronavirus 2 (2019-nCoV) (SARS-CoV-2), UniProt P0DTD1); experiment: Enzymatic assay for RdRP (AlphaScreen, BPS Biosciences); assay type: biochemical
Protocol: Min=negative control without any enzyme (0% enzyme activity), Max=positive control with enzyme and substrate (100% enzyme activity). […] The statistical significance of differences was evaluated by one-way ANOVA, *p<0.05, **p<0.01, ***p<0.001, for all conditions relative to the ethanol blank, n=3. […] Min=negative control without any enzyme (0% enzyme activity), Max=positive control with enzyme and substrate (100% enzyme activity). The statistical significance of differences was evaluated by one-way ANOVA, *p<0.05, **p<0.01, ***p<0.001, for all conditions relative to the ethanol blank, n=3
The assay for RdRP activity was outsourced to BPS Biosciences ([…], California, USA) using the following protocol. […] The RdRP reactions were performed in triplicate at 37° C. for 60 min in a 10 μl mixture containing assay buffer, RNA duplex, ATP substrate and enzyme, and the test compound. The reactions were carried out in wells of 384-well Optiplate (PerkinElmer). After enzymatic reactions, 10 μl of anti-Dig Acceptor beads (PerkinElmer, diluted 1:500 with lx detection buffer) were added to the reaction mix. After brief shaking, the plate was incubated for 30 min. […] The values of % activity versus the concentrations of the compound tested were then plotted using non-linear regression analysis of a Sigmoidal dose-response curve generated with the equation Y=B+(T−B)/1+10^((LogEC50−X)×Hill Slope), where Y=percent activity, B=minimum percent activity, T=maximum percent activity, X=logarithm of compound and Hill Slope=slope factor or Hill coefficient. The IC50 value was determined as the concentration causing half-maximal activity.

[3] = pathway: Host Interactions with HIV factors
[4] = pathway: Host Interactions with Influenza Factors
[5] = pathway: Influenza Viral RNA Transcription & Replication
[6] = read-out: IC50 for inhibition of the enzyme activity of RdRP

Compound: C=C1/C(=C\C=C2/CCC[C@]3(C)[C@@H]([C@H](C)CCCC(C)(C)O)CC[C@@H]23)C[C@@H](O)C[C@@H]1O [1,25(OH)2D3, (3S,5Z,7E)-9,10-secocholesta-5,7,10(19)-trien-1,3,25-triol, reference compound]
- GSEA Direction (human epithelial cells): ^..
- GSEA NES (Normalized Enriched Score) (human epithelial cells): ^..
- GSEA NES (Normalized Enriched Score) (human epithelial cells; pathway: HIV Life Cycle): −2.503
- GSEA Direction (human epithelial cells; [3]): ^..
- GSEA NES (Normalized Enriched Score) (human epithelial cells; [3]): ^..
- GSEA Direction (human epithelial cells; [4]): ^..
- GSEA NES (Normalized Enriched Score) (human epithelial cells; [4]): ^..
- GSEA Direction (human epithelial cells; [5]): ^..
- GSEA NES (Normalized Enriched Score) (human epithelial cells; [5]): ^..
- GSEA NES (Normalized Enriched Score) (human epithelial cells; pathway: Late Phase of HIV Life Cycle): −2.658
- GSEA NES (Normalized Enriched Score) (human epithelial cells; pathway: Viral Messenger RNA Synthesis): −2.405
- GSEA NES (Normalized Enriched Score) (human epithelial cells; pathway: Viral mRNA Translation): −3.601
- toxicity and calcemic activity [1]: calcemic

Compound: C=C1CCC(O)CC1=CC=C1CCCC2(C)C1CCC2C(C)(O)C=CC(C)C(C)C (stereo not shown) [20(OH)D2, 20-hydroxyvitamin D2]
- toxicity and calcemic activity [1]: not toxic and non-calcemic

Compound: CC(C)CCC[C@](C)(O)[C@H]1CC[C@H]2C3=CC=C4C[C@@H](O)CC[C@]4(C)[C@H]3CC[C@@]21C [20S(OH)7DHC, Cholesta-5,7-dien-3β,20-diol]
- inhibition at 0.2 µM [2]: 10 to 19%
- IC50 (SARS-CoV-2 RdRP; [6]): 4700 nM

Compound: C=C1CC[C@H](O)C/C1=C/C=C1\CCC[C@@]2(C)[C@H]1CC[C@@H]2[C@@](C)(O)CCCC(C)C [20S(OH)D3, (3S,5Z,7E)-9,10-secocholesta-5,7,10(19)-trien-3,20-diol]
- IC50 (SARS-CoV-2 RdRP): 2600 nM

Compound: CC(C)CCC[C@](C)(O)[C@H]1CC[C@H]2C3=CC=C4C[C@@H](O)CC[C@@]4(C)[C@@H]3CC[C@@]21C [20S(OH)L3, 9β,10α-cholesta-5,7-diene-3β,20-diol]
- IC50 (SARS-CoV-2 RdRP; [6]): 1000 nM

Compound: CC(C)[C@@H](O)CC[C@@H](C)[C@H]1CC[C@H]2C3=CC=C4C[C@@H](O)CC[C@@]4(C)[C@@H]3CC[C@]12C [24(OH)L3, 9β,10α-cholesta-5,7-diene-3β,24-diol]
- inhibition at 0.2 µM [2]: 10 to 19%
- IC50 (SARS-CoV-2 RdRP; [6]): 2500 nM

Compound: C[C@H](CCCC(C)(C)O)[C@H]1CC[C@H]2C3=CC=C4C[C@@H](O)CC[C@@]4(C)[C@@H]3CC[C@]12C [25(OH)L3, 9β,10α-cholesta-5,7-diene-3β,25-diol]
- inhibition at 0.2 µM [2]: 10 to 19%
- IC50 (SARS-CoV-2 RdRP; [6]): 500 nM

Compound: (3S,5Z,7E)-9,10-secocholesta-5,7,10(19)-trien-3,25-diol [25(OH)D3, reference compound]
- inhibition of M^pro (in words) ([2]; 100 nM): significant inhibition
- IC50 (SARS-CoV-2 RdRP; [6]): 1300 nM
- toxicity and calcemic activity [1]: calcemic
